Experimental findings from the Kinase Knowledgebase extract (Sharma et al. 2016) are described below.

Several values for one entry are separate records, joined by “and”; a condition that tells them apart may be missing. Equal values may be shown once.

For test [1], the target named is EGFR (human) (UniProt P00533). The conditions noted are these: a431.
Test [2] has as its target EGFR (human) (UniProt P00533).

EGFR (human), sequence (P00533 whole entry, looked up): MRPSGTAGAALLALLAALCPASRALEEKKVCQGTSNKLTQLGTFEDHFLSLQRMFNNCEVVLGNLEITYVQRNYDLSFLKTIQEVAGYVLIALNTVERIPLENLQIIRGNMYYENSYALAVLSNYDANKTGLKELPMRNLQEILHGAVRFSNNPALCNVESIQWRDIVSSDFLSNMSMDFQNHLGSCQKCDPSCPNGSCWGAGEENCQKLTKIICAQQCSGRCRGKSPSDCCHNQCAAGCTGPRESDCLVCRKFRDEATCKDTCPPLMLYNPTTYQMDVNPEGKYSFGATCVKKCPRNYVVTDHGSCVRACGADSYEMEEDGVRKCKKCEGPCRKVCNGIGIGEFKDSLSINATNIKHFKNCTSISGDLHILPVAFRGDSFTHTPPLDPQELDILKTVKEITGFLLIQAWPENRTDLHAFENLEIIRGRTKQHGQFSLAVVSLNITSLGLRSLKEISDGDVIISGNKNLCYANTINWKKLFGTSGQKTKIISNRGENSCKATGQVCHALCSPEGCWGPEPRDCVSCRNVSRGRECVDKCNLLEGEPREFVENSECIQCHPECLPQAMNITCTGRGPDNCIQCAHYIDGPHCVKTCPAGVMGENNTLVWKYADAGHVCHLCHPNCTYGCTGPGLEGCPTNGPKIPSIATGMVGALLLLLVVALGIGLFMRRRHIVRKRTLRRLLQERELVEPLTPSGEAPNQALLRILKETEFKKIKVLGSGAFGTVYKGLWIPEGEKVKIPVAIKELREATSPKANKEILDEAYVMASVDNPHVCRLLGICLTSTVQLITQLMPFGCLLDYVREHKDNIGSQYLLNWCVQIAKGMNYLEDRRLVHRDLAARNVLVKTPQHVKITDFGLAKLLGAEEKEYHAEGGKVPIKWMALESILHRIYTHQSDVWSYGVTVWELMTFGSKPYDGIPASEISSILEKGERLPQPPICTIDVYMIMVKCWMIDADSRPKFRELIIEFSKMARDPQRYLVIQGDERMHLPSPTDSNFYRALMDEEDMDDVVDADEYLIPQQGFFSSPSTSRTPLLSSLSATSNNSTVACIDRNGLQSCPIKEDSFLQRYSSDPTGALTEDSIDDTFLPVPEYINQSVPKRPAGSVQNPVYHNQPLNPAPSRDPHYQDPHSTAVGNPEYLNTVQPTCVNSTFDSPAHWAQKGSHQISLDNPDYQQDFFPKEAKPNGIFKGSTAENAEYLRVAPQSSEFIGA

Regarding `O=C(c1cn(-c2ccc3ncnc(Nc4ccc(OCc5cccc(F)c5)c(Cl)c4)c3c2)cc1CCO)N1CCCCC1`, the IC50 (in general, the concentration at which inhibition is half-maximal) against EGFR (human) [1] was found to be 50 nM; at EGFR (human) [2] it was 3 nM.

For the compound `O=C(c1cn(-c2ccc3ncnc(Nc4ccc(OCc5cccc(F)c5)c(Cl)c4)c3c2)cc1CCO)N1CCOCC1`, the IC50 at EGFR (human) [1] was determined as 160 nM; against EGFR (human) [2] it was 8 nM.

For `O=C(Cn1ccc(-c2ccc3ncnc(Nc4ccc(OCc5cccc(F)c5)c(Cl)c4)c3c2)c1)N1CCN(CC2CC2)CC1`, the IC50 turned out to be 1980 nM on EGFR (human) [1] and 443 nM against EGFR (human) [2].

In the case of `CN1CCN(CC(O)Cn2ccc(-c3ccc4ncnc(Nc5ccc6c(cnn6Cc6cccc(F)c6)c5)c4c3)c2)CC1` (centres undefined), the IC50 against EGFR (human) [1] amounted to 768 nM; at EGFR (human) [2] it was 2 nM.

For the compound `Cn1cccc1-c1ccc2ncnc(Nc3ccc(OCc4cccc(F)c4)c(Cl)c3)c2c1`, the IC50 stood at 136 nM at EGFR (human) [1] and 6 nM on EGFR (human) [2].

Consider `OC(CN1CCN(Cc2ccncc2)CC1)Cn1ccc(-c2ccc3ncnc(Nc4ccc5c(cnn5Cc5cccc(F)c5)c4)c3c2)c1` (centres undefined), for which the IC50 came to 4200 nM against EGFR (human) [1] and 598 nM against EGFR (human) [2].

For `OCCc1cn(-c2ccc3ncnc(Nc4ccc(OCc5cccc(F)c5)c(Cl)c4)c3c2)cc1CN1CCCC1`, the IC50 on EGFR (human) [1] amounted to 390 nM; against EGFR (human) [2], 7 nM.

Take `OC(CN1CC=CC1)Cn1ccc(-c2ccc3ncnc(Nc4ccc(OCc5cccc(F)c5)c(Cl)c4)c3c2)c1` (centres undefined): the IC50 was found to be 431 nM against EGFR (human) [1] and 22 nM against EGFR (human) [2].

With `CS(=O)(=O)CCNC1CCN(C[C@@H](O)Cn2ccc(-c3ccc4ncnc(Nc5ccc(OCc6cccc(F)c6)c(Cl)c5)c4c3)c2)CC1`, the values for the IC50 at EGFR (human) [1] and against EGFR (human) [2] were 3620 nM and 11 nM, respectively.

As for `OCC(O)Cn1ccc(-c2ccc3ncnc(Nc4ccc(OCc5cccc(F)c5)c(Cl)c4)c3c2)c1` (centres undefined), the IC50 on EGFR (human) [1] stood at 1390 nM; against EGFR (human) [2], 27 nM.

For the compound `O=C(NCCN1CCOCC1)c1cn(-c2ccc3ncnc(Nc4ccc(OCc5ccccn5)c(Cl)c4)c3c2)cc1CCO`, the results for the IC50 against EGFR (human) [1] and at EGFR (human) [2] were 25 nM and 30 nM, respectively.

As to `CC(=O)N[C@@H]1CCN(C(=O)Cn2ccc(-c3ccc4ncnc(Nc5ccc(OCc6cccc(F)c6)c(Cl)c5)c4c3)c2)C1`, the IC50 was found to be 626 nM against EGFR (human) [1] and 129 nM at EGFR (human) [2].

As for `Clc1cc(Nc2ncnc3ccc(-c4ccc[nH]4)cc23)ccc1OCc1ccccn1`, the IC50 on EGFR (human) [1] worked out at 90 nM; on EGFR (human) [2], 5 nM.

As to `CS(=O)(=O)N1CCOC(Cn2ccc(-c3ccc4ncnc(Nc5ccc6c(cnn6Cc6cccc(F)c6)c5)c4c3)c2)C1` (centres undefined), the figures for the IC50 at EGFR (human) [1] and against EGFR (human) [2] were 243 nM and 257 nM, respectively.

Turning to `OC(CN1CCOCC1)Cn1ccc(-c2ccc3ncnc(Nc4ccc5c(cnn5Cc5cccc(F)c5)c4)c3c2)c1` (centres undefined), the IC50 against EGFR (human) [1] was 170 nM; against EGFR (human) [2], 5 nM.

On to `OCCc1cn(-c2ccc3ncnc(Nc4ccc(OCc5ccccn5)c(Cl)c4)c3c2)cc1CN1CCCCC1`, for which the figures for the IC50 against EGFR (human) [1] and at EGFR (human) [2] were 3 nM and 32 nM, respectively.

For the compound `O=S1(=O)CCC(O)(CNCc2cc(-c3ccc4ncnc(Nc5ccc6c(cnn6Cc6cccc(F)c6)c5)c4c3)c[nH]2)CC1`, the IC50 on EGFR (human) [1] was 2870 nM; at EGFR (human) [2] it was 6 nM.

`O=C1OCCc2cn(-c3ccc4ncnc(Nc5ccc(OCc6cccc(F)c6)c(Cl)c5)c4c3)cc21`: the IC50 worked out at 570 nM against EGFR (human) [1] and 5 nM at EGFR (human) [2].

`CS(=O)(=O)CCNCC(O)Cn1ccc(-c2ccc3ncnc(Nc4ccc5c(cnn5Cc5cccc(F)c5)c4)c3c2)c1` (centres undefined): the IC50 is 430 nM at EGFR (human) [1] and 1 nM against EGFR (human) [2].

With `Fc1cccc(COc2ccc(Nc3ncnc4ccc(-c5ccn(CCCN6CCOCC6)c5)cc34)cc2Cl)c1`, the IC50 worked out at 1370 nM on EGFR (human) [1] and 39 nM at EGFR (human) [2].

In the case of `CN1CCN(C(=O)c2cn(-c3ccc4ncnc(Nc5ccc(OCc6ccccn6)c(Cl)c5)c4c3)cc2CCO)CC1`, the results for the IC50 at EGFR (human) [1] and on EGFR (human) [2] were 130 nM and 60 nM, respectively.

`CN1CCN(CCn2ccc(-c3ccc4ncnc(Nc5ccc(OCc6cccc(F)c6)c(Cl)c5)c4c3)c2)CC1`: the figures for the IC50 against EGFR (human) [1] and against EGFR (human) [2] were 1780 nM and 17 nM, respectively.

As for `O=C(Cn1ccc(-c2ccc3ncnc(Nc4ccc(OCc5cccc(F)c5)c(Cl)c4)c3c2)c1)N[C@H]1CC[C@H](O)CC1`, the IC50 against EGFR (human) [1] was 327 nM; at EGFR (human) [2], 263 nM.

Regarding `O=C(NCC1CCS(=O)(=O)CC1)c1cc(-c2ccc3ncnc(Nc4ccc(OCc5cccc(F)c5)c(Cl)c4)c3c2)c[nH]1`, the IC50 came out at 706 nM against EGFR (human) [1] and 116 nM on EGFR (human) [2].

As to `O=S1(=O)CCC(O)(CNCc2ccn(-c3ccc4ncnc(Nc5ccc(OCc6cccc(F)c6)c(Cl)c5)c4c3)c2)CC1`, the IC50 worked out at 30 nM on EGFR (human) [1] and 7 nM against EGFR (human) [2].

For the compound `CN1CCN(C(=O)c2cn(-c3ccc4ncnc(Nc5ccc(OCc6cccc(F)c6)c(Cl)c5)c4c3)cc2CCO)CC1`, the IC50 on EGFR (human) [1] is 1430 nM; on EGFR (human) [2] it was 5 nM.

On to `CCN(CC)CCNCc1cccn1-c1ccc2ncnc(Nc3ccc(OCc4cccc(F)c4)c(Cl)c3)c2c1`, for which the figures for the IC50 against EGFR (human) [1] and on EGFR (human) [2] were 770 nM and 22.5 nM, respectively.

In the case of `CCN(CC)C[C@@H](O)Cn1ccc(-c2ccc3ncnc(Nc4ccc5c(cnn5Cc5cccc(F)c5)c4)c3c2)c1`, the values for the IC50 on EGFR (human) [1] and at EGFR (human) [2] were 390 nM and 71 nM, respectively.

Consider `O[C@@H](CN1CCOCC1)Cn1ccc(-c2ccc3ncnc(Nc4ccc(OCc5cccc(F)c5)c(Cl)c4)c3c2)c1`, for which the figures for the IC50 against EGFR (human) [1] and against EGFR (human) [2] were 320 nM and 31 nM, respectively.

For the compound `Fc1cccc(COc2ccc(Nc3ncnc4ccc(-n5cc6c(c5)C(=NOCCN5CCOCC5)CC6)cc34)cc2Cl)c1`, the IC50 is 20 nM against EGFR (human) [1]; 86 nM and 94 nM on EGFR (human) [2].

With `Fc1cccc(COc2ccc(Nc3ncnc4ccc(-n5ccc(CNCCN6CCOCC6)c5)cc34)cc2Cl)c1`, the IC50 at EGFR (human) [1] amounted to 20 nM; at EGFR (human) [2] it was 3 nM.

Turning to `Fc1cccc(COc2ccc(Nc3ncnc4ccc(-c5ccn(CCN6CCCC6)c5)cc34)cc2Cl)c1`, the IC50 against EGFR (human) [1] is 40 nM; against EGFR (human) [2] it was 4 nM.

As to `Fc1cccc(Cn2ncc3cc(Nc4ncnc5ccc(-n6cccc6)cc45)ccc32)c1`, the IC50 amounted to 80 nM on EGFR (human) [1] and 6 nM against EGFR (human) [2].

For the compound `O[C@H](CN1CCOCC1)Cn1ccc(-c2ccc3ncnc(Nc4ccc(OCc5cccc(F)c5)c(Cl)c4)c3c2)c1`, the IC50 against EGFR (human) [1] was found to be 511 nM; on EGFR (human) [2], 18 nM.

With `COCCCN1CCOC(Cn2ccc(-c3ccc4ncnc(Nc5ccc6c(cnn6Cc6cccc(F)c6)c5)c4c3)c2)C1` (centres undefined), the half-inhibitory concentration (IC50) against EGFR (human) [1] was determined as 832 nM; against EGFR (human) [2], 291 nM.

On to `CCN(CC)Cc1ccn(-c2ccc3ncnc(Nc4ccc(OCc5cccc(F)c5)c(Cl)c4)c3c2)c1`, for which the IC50 was found to be 200 nM on EGFR (human) [1] and 9 nM at EGFR (human) [2].

Turning to `O=S1(=O)CCC(CNCc2cc(-c3ccc4ncnc(Nc5ccc6c(cnn6Cc6cccc(F)c6)c5)c4c3)c[nH]2)CC1`, the IC50 worked out at 1100 nM at EGFR (human) [1] and 7 nM on EGFR (human) [2].

For `Cc1ccc(Oc2ccc(Nc3ncnc4ccc(-c5cc[nH]c5)cc34)cc2C)cn1`, the results for the IC50 at EGFR (human) [1] and against EGFR (human) [2] were 90 nM and 387 nM, respectively.

In the case of `OC(CN1CCN(C2CC2)CC1)Cn1ccc(-c2ccc3ncnc(Nc4ccc(OCc5cccc(F)c5)c(Cl)c4)c3c2)c1` (centres undefined), the IC50 at EGFR (human) [1] was 521 nM; at EGFR (human) [2] it was 117 nM.

With `O[C@H](CN1CCC[C@@H]1CN1CCCC1)Cn1ccc(-c2ccc3ncnc(Nc4ccc(OCc5cccc(F)c5)c(Cl)c4)c3c2)c1`, the IC50 was determined as 746 nM against EGFR (human) [1] and 95 nM against EGFR (human) [2].

As to `OC(CN1CCN(CC2CC2)CC1)Cn1ccc(-c2ccc3ncnc(Nc4ccc(OCc5cccc(F)c5)c(Cl)c4)c3c2)c1` (centres undefined), the IC50 at EGFR (human) [1] amounted to 409 nM; on EGFR (human) [2], 79 nM.

In the case of `CN1CCN(CCNCc2cn(-c3ccc4ncnc(Nc5ccc(OCc6cccc(F)c6)c(Cl)c5)c4c3)cc2C(F)(F)F)CC1`, the IC50 turned out to be 160 nM at EGFR (human) [1] and 32 nM at EGFR (human) [2].

On to `Fc1cccc(COc2ccc(Nc3ncnc4ccc(-c5ccn(C[C@H]6CN7CCC[C@@H]7CO6)c5)cc34)cc2Cl)c1`, for which the IC50 at EGFR (human) [1] worked out at 1320 nM; at EGFR (human) [2], 74 nM.

As for `O=C(Cn1ccc(-c2ccc3ncnc(Nc4ccc(OCc5cccc(F)c5)c(Cl)c4)c3c2)c1)N1CCC(N2CCCCC2)CC1`, the IC50 turned out to be 295 nM against EGFR (human) [1] and 79 nM against EGFR (human) [2].

In the case of `Fc1cccc(COc2ccc(Nc3ncnc4ccc(-c5ccn(CCc6ccncc6)c5)cc34)cc2Cl)c1`, the IC50 against EGFR (human) [1] was found to be 874 nM; against EGFR (human) [2], 166 nM.

With `Fc1cccc(COc2ccc(Nc3ncnc4ccc(-c5ccn(CCCN6CCCCC6)c5)cc34)cc2Cl)c1`, the IC50 was determined as 1980 nM on EGFR (human) [1] and 9 nM at EGFR (human) [2].

As to `O=C(Cn1ccc(-c2ccc3ncnc(Nc4ccc(OCc5cccc(F)c5)c(Cl)c4)c3c2)c1)NCC1(O)CCS(=O)(=O)CC1`, the results for the 50% inhibitory concentration (IC50) against EGFR (human) [1] and at EGFR (human) [2] were 1550 nM and 17 nM, respectively.
